Assay results: patent US7662860B2 (priority 2003, dated 2010)

Target: SARS-CoV virus 3CL protease protein (Severe acute respiratory syndrome coronavirus, UniProt P0C6X7)
Test: biochemical
Format: binding

Compound: CN(C)CCCSc1ccccc1NC(=O)C=Cc1ccccc1 [cinanserin, 2′-(3-dimethylaminopropylthio)cinnamanilide]
- kd: 0.00993 s⁻¹
- kon (read-out: ka): 38600 M⁻¹ s⁻¹
